The results in this text go back to US20250120958A1, “Treatment of GM2 Gangliosidosis” (Azafaros B.V., priority 2022, published 2025).

In one series the test system is GlcCer C16:0 and C18:0. As to the kind of experiment: Target engagement: GlcCer C16:0 and C18:0 in the cerebellum. The series is classed as in vivo, mouse. The settings on record: treated vs untreated heterozygous or Hexb (−/−) mice. An excerpt:
Consistent with this action, the inhibition of GbA2 should result in an increase in GlcCer species in the brain where GbA2 plays a significant role.

Series [1] concerns Sandhoff mouse model (Hexb (−/−)). As to the kind of experiment: Open field test (OFT) in Sandhoff mice. The series is classed as in vivo. The following applies: Hexb (−/−) mice vs vehicle, 0.5-6 mg/kg/day. The protocol:
The OFT was conducted using a 40×40 cm sized apparatus in a quiet room and constant lighting conditions. Trial duration was 5 min. All trials were videotaped and later analysed using the tracking software Smart® Version 3.0.05. Measures included the average locomotion speed, walked distance and time spent in outer and inner zones of the field.
(§1) Behavioral assessments, including open field tests (OFT, ActiMot, TSE systems) and rotarod (RR, IITC Life Sciences), were also performed. The OFT assessed motor skills by placing a mouse into a square box with high walls for 5 minutes to record several parameters, including distance travelled (centimetres) and resting time in zone (seconds). Motor coordination of mice was assessed using a RR apparatus as per previously published protocol (Osmon, Vyas et al. 2018). Briefly, mice were placed on moving cylinders that accelerated from 4 to 40 rotations per minute (rpm) over 5 minutes. Each mouse was allowed three trials on the RR with a minimum of 10 minutes for rest in-between assessments. The highest number achieved was recorded for each of the following parameters: latency to fall, end rotations per minute and distance travelled.

A short description of series [2]: Dynamic vapour sorption (DVS). Format: physicochemical. The source says:
In addition, the behaviour of the sample of the Form 3 crystalline form of compound of formula (I) obtained by equilibration with ethyl acetate was investigated under variable water vapour pressures (DVS measurement). At the highest relative humidity of 95% the sample absorbed about 1.2% of water that was released when the relative humidity was returned to the 50% RH. The amount of absorbed water is small, and the water sorption is reversible. […] For Form 2, at high relative humidity the sample absorbed about 18% of water; however, most of the absorbed water was released when the relative humidity was returned to the 50% RH.
Dynamic vapour sorption (DVS) measurements were performed with an SPS11-100n “Sorptions Prufsystem” from ProUmid (formerly “Projekt Messtechnik”), August-Nagel-Str. 23, 89079 Ulm (Germany). About 5 mg to 20 mg of sample was put into an aluminum sample pan. Humidity change rates of 5% per hour were used.

Series [3] can be described thus: Brain pharmacokinetics after 16 weeks of once daily administration (LC-MS/MS). The series is classed as in vivo, mouse. As for the experimental part:
Brain samples were collected, rinsed with saline and blotted dry. Samples were fixed in 4% PFA for immunohistochemical analyses; frozen and kept for gene expression and molecular biology analyses; and used frozen for LC-MS/MS analysis.
Unless otherwise stated, the methodology and sample collection were performed as in Example 2. […] Twenty-four hours after the last dose the animals were euthanized at varying time-points and AZ-3102 was measured by LC-MS/MS. […] However, exposure (AUC0-24) proportionality was well conserved between doses: 6 versus 3 (1.8-fold); 3 and 1.5 (2.0-fold) and 1.5 and 0.5 (2.4-fold). […] The reduced clearance in the brain versus plasma has also been observed in prior studies with rats and dogs (internal data). […] The plasma concentration at all doses was approximately 1 ng/mL after 24 h and in the brain the concentration was greater than 20 ng/g tissue.

For series [4], the system named is Sandhoff mouse model (Hexb (−/−)). Put plainly: Rotarod (RR) test in Sandhoff mice. The series is classed as in vivo. The following applies: 16 weeks, 0.5-6 mg/kg/day. As for the experimental part: In the ROT, all animals were on the day before the first testing, habituated to the device for 5 min using a continuous rotation speed of 4-40 rotations per minute (rpm). For the subsequent experiments, no prior habituation was conducted. In the actual testing procedure, the test was conducted over 5 min with an accelerating rotation of 4-40 rpm. Time was measured until the animals fell from the rod. Up to 5 animals could be tested simultaneously.
as §1

A further series has as its target T1, GbA2 (Homo sapiens, UniProt Q9HCG7).
T1 sequence (Q9HCG7 1-927): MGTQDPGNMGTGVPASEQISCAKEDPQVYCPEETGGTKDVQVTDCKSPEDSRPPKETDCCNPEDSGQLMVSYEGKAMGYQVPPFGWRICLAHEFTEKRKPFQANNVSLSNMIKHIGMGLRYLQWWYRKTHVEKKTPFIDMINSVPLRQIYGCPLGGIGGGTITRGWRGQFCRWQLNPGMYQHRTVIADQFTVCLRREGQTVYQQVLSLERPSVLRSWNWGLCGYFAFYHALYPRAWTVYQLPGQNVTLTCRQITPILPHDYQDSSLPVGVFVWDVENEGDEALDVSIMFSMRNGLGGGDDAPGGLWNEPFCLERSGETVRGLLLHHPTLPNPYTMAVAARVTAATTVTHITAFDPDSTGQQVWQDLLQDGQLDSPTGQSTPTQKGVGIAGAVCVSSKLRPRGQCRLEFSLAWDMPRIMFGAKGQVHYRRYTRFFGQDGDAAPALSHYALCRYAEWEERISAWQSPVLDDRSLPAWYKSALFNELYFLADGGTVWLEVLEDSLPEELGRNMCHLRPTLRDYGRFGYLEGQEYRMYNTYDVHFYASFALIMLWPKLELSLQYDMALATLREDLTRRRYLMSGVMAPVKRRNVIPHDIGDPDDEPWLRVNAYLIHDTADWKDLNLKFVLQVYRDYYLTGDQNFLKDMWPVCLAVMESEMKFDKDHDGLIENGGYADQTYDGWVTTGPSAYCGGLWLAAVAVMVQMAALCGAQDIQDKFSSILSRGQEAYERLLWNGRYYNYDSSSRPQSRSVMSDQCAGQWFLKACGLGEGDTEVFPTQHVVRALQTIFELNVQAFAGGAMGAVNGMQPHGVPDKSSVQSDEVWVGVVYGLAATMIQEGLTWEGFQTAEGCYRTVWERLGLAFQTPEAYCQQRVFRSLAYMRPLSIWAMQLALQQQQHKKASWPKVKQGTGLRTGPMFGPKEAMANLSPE
Put plainly: In vitro potency on GbA2 (non-lysosomal glucosylceramidase). Format: biochemical.

“Also recorded” adds a separate entry of the source.

`OC[C@H]1[C@@H](O)[C@H](O)[C@@H](O)CN1CCCCCOCc1ccc(-c2ccccc2)c(F)c1` [AZ-3102]: in the series on GlcCer C16:0 and C18:0, the “increase in GlcCer C16:0” value is given as “approximately 10 fold” and the “increase in GlcCer C18:0” value was “approximately 10 fold”. In addition, the “OFT assessments (Total Distance Travelled, Resting Time in Zone)” value in series [1] is on record as “significantly improved”. Moreover, the hygroscopicity entry in series [2] (DVS) is “non-hygroscopic or substantially non-hygroscopic”. The “water absorbed (DVS)” value in series [2] (highest relative humidity of 95%, reversible) is recorded as “about 1.2%”. The “concentration profile in brain” value in series [3] (24 h period, most dose groups) was “sustained with very little decrease”. Besides, in series [3] (Hexb (−/−) and Hexb (+/−), mouse, brain, oral, all doses), the concentration at 24 h was > 20 ng/g. The “RR assessments, effect of treatment vs vehicle” value in series [4] is reported as “significant at all dose levels; also recorded: significantly improved”. Further, the “inhibitory activity on GbA2” value against GbA2 was “low nM”. At GbA2 (in vitro potency), this compound had an IC50 of 0.692 nM.

One may read the IC50 as the concentration at which inhibition is half-maximal. A lower IC50 goes with greater potency in that assay.
